Data taken from the supplement of paper PMC10307832.

Tests used:
Test in all cases: relative viability (nuclei count vs DMSO), 5 days (fraction); higher = more cells survive
GSK126 + Navitoclax = compound: CC[C@H](C)N1C=C(C2=C(C=C(C=C21)C3=CN=C(C=C3)N4CCNCC4)C(=O)NCC5=C(C=C(NC5=O)C)C)C [GSK126] + CC1(C)CCC(c2ccc(Cl)cc2)=C(CN2CCN(c3ccc(C(=O)NS(=O)(=O)c4ccc(N[C@H](CCN5CCOCC5)CSc5ccccc5)c(S(=O)(=O)C(F)(F)F)c4)cc3)CC2)C1 [Navitoclax] (partner 0.5 µM)
Method in brief: (§1)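 Relative viability divides the nuclei count in treated wells by that in vehicle wells. Lung cancer cell lines were seeded in 1536-well plates, dosed by pin tool the next day, and fixed and stained after 5 days in one step with final 0.05% Triton X-100, 1% formaldehyde and 1 ug/ml Hoechst. Dosing was a single drug or a fixed anchor-drug dose plus five library-drug doses (not always all listed) in √10 steps, and values are medians of duplicate plates imaged at 4×.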

MLN4924 + Linsitinib = compound: NS(=O)(=O)OC[C@@H]1C[C@@H](n2ccc3c(N[C@H]4CCc5ccccc54)ncnc32)C[C@@H]1O [MLN4924] + C[C@]1(O)C[C@@H](c2nc(-c3ccc4ccc(-c5ccccc5)nc4c3)c3c(N)nccn32)C1 [Linsitinib] (partner 1 µM)
Method in brief: as §1

MLN4924 + Pemetrexed = compound: NS(=O)(=O)OC[C@@H]1C[C@@H](n2ccc3c(N[C@H]4CCc5ccccc54)ncnc32)C[C@@H]1O [MLN4924] + Nc1nc2[nH]cc(CCc3ccc(C(=O)N[C@@H](CCC(=O)O)C(=O)O)cc3)c2c(=O)[nH]1 [Pemetrexed] (partner 0.2 µM)
Method in brief: as §1

MLN4924 + Decitabine = compound: NS(=O)(=O)OC[C@@H]1C[C@@H](n2ccc3c(N[C@H]4CCc5ccccc54)ncnc32)C[C@@H]1O [MLN4924] + Nc1ncn([C@H]2C[C@H](O)[C@@H](CO)O2)c(=O)n1 [Decitabine] (partner 2 µM)
Method in brief: as §1

**Q.** Which results are given for UMC-11?
**A.** relative viability (GSK126 + Navitoclax; first compound 0.08 µM): 0.323; relative viability (GSK126 + Navitoclax; first compound 0.253 µM): 0.314; relative viability (GSK126 + Navitoclax; first compound 0.8 µM): 0.316; relative viability (GSK126 + Navitoclax; first compound 2.53 µM): 0.264; relative viability (GSK126 + Navitoclax; first compound 8 µM): 0.279; relative viability (MLN4924 + Linsitinib; first compound 0.04 µM): 0.645; relative viability (MLN4924 + Linsitinib; first compound 0.1265 µM): 0.331; relative viability (MLN4924 + Linsitinib; first compound 0.4 µM): 0.238; relative viability (MLN4924 + Linsitinib; first compound 1.265 µM): 0.194; relative viability (MLN4924 + Linsitinib; first compound 4 µM): 0.153; relative viability (MLN4924 + Pemetrexed; first compound 0.04 µM): 0.53; relative viability (MLN4924 + Pemetrexed; first compound 0.1265 µM): 0.327; relative viability (MLN4924 + Pemetrexed; first compound 0.4 µM): 0.289; relative viability (MLN4924 + Pemetrexed; first compound 1.265 µM): 0.175; relative viability (MLN4924 + Pemetrexed; first compound 4 µM): 0.159; relative viability (MLN4924 + Decitabine; first compound 0.04 µM): 0.559; relative viability (MLN4924 + Decitabine; first compound 0.1265 µM): 0.511; relative viability (MLN4924 + Decitabine; first compound 0.4 µM): 0.402; relative viability (MLN4924 + Decitabine; first compound 1.265 µM): 0.309; relative viability (MLN4924 + Decitabine; first compound 4 µM): 0.277
